# Laboratory results as given in ChEMBL document CHEMBL4665869, “New thiazolopyrimidine as anticancer agents: Synthesis, biological evaluation, DNA binding, molecular modeling and ADMET study” (Bioorg Med Chem Lett, 2020).
# The source made the active and inactive calls. The calls are words filed in the database; no cut-off is given here.
# Columns and labels:
# LOX IMVI = assay: Growth inhibition of human LOX IMVI cells at 10 uM relative to control; assay type: functional; settings: read-out: GI
# MDA-MB-468 = assay: Growth inhibition of human MDA-MB-468 cells at 10 uM relative to control; assay type: functional
# T47D = assay: Growth inhibition of human T47D cells at 10 uM relative to control; assay type: functional
# CCRF-CEM = assay: Growth inhibition of human CCRF-CEM cells at 10 uM relative to control; assay type: functional
# HL-60(TB) = assay: Growth inhibition of human HL-60(TB) cells at 10 uM relative to control; assay type: functional
# K562 = assay: Growth inhibition of human K562 cells at 10 uM relative to control; assay type: functional; settings: read-out: GI
# MOLT-4 = assay: Growth inhibition of human MOLT-4 cells at 10 uM relative to control; assay type: functional
# RPMI-8226 = assay: Growth inhibition of human RPMI-8226 cells at 10 uM relative to control; assay type: functional
# SR = assay: Growth inhibition of human SR cells at 10 uM relative to control; assay type: functional
# A549 = assay: Growth inhibition of human A549 cells at 10 uM relative to control; assay type: functional
# HOP-62 = assay: Growth inhibition of human HOP-62 cells at 10 uM relative to control; assay type: functional; settings: read-out: GI
# HOP-92 = assay: Growth inhibition of human HOP-92 cells at 10 uM relative to control; assay type: functional
# NCI-H226 = assay: Growth inhibition of human NCI-H226 cells at 10 uM relative to control; assay type: functional
# NCI-H23 = assay: Growth inhibition of human NCI-H23 cells at 10 uM relative to control; assay type: functional; settings: read-out: GI
# NCI-H322M = assay: Growth inhibition of human NCI-H322M cells at 10 uM relative to control; assay type: functional; settings: read-out: GI
# NCI-H460 = assay: Growth inhibition of human NCI-H460 cells at 10 uM relative to control; assay type: functional; settings: read-out: GI
# NCI-H522 = assay: Growth inhibition of human NCI-H522 cells at 10 uM relative to control; assay type: functional
# SW-620 = assay: Growth inhibition of human SW-620 cells at 10 uM relative to control; assay type: functional; settings: read-out: GI
# COLO 205 = assay: Growth inhibition of human COLO 205 cells at 10 uM relative to control; assay type: functional
# HCC 2998 = assay: Growth inhibition of human HCC 2998 cells at 10 uM relative to control; assay type: functional
# HCT-116 = assay: Growth inhibition of human HCT-116 cells at 10 uM relative to control; assay type: functional; settings: read-out: GI
# HCT-15 = assay: Growth inhibition of human HCT-15 cells at 10 uM relative to control; assay type: functional; settings: read-out: GI
# HT-29 = assay: Growth inhibition of human HT-29 cells at 10 uM relative to control; assay type: functional; settings: read-out: GI
# KM12 = assay: Growth inhibition of human KM12 cells at 10 uM relative to control; assay type: functional; settings: read-out: GI
# SF-268 = assay: Growth inhibition of human SF-268 cells at 10 uM relative to control; assay type: functional
# SF-295 = assay: Growth inhibition of human SF-295 cells at 10 uM relative to control; assay type: functional
# SF-539 = assay: Growth inhibition of human SF-539 cells at 10 uM relative to control; assay type: functional
# SNB-19 = assay: Growth inhibition of human SNB-19 cells at 10 uM relative to control; assay type: functional
# SNB-75 = assay: Growth inhibition of human SNB-75 cells at 10 uM relative to control; assay type: functional
# U-251 = assay: Growth inhibition of human U-251 cells at 10 uM relative to control; assay type: functional; settings: read-out: GI
# Malme-3M = assay: Growth inhibition of human Malme-3M cells at 10 uM relative to control; assay type: functional
# M14 = assay: Growth inhibition of human M14 cells at 10 uM relative to control; assay type: functional
# MDA-MB-435 = assay: Growth inhibition of human MDA-MB-435 cells at 10 uM relative to control; assay type: functional
# SK-MEL-2 = assay: Growth inhibition of human SK-MEL-2 cells at 10 uM relative to control; assay type: functional
# SK-MEL-28 = assay: Growth inhibition of human SK-MEL-28 cells at 10 uM relative to control; assay type: functional
# SK-MEL-5 = assay: Growth inhibition of human SK-MEL-5 cells at 10 uM relative to control; assay type: functional
# UACC-257 = assay: Growth inhibition of human UACC-257 cells at 10 uM relative to control; assay type: functional; settings: read-out: GI
# UACC-62 = assay: Growth inhibition of human UACC-62 cells at 10 uM relative to control; assay type: functional
# IGROV-1 = assay: Growth inhibition of human IGROV-1 cells at 10 uM relative to control; assay type: functional
# OVCAR-4 = assay: Growth inhibition of human OVCAR-4 cells at 10 uM relative to control; assay type: functional; settings: read-out: GI
# OVCAR-5 = assay: Growth inhibition of human OVCAR-5 cells at 10 uM relative to control; assay type: functional
# OVCAR-8 = assay: Growth inhibition of human OVCAR-8 cells at 10 uM relative to control; assay type: functional
# NCI/ADR-RES = assay: Growth inhibition of human NCI/ADR-RES cells at 10 uM relative to control; assay type: functional; settings: read-out: GI
# SK-OV-3 = assay: Growth inhibition of human SK-OV-3 cells at 10 uM relative to control; assay type: functional; settings: read-out: GI
# 786-0 = assay: Growth inhibition of human 786-0 cells at 10 uM relative to control; assay type: functional; settings: read-out: GI
# A498 = assay: Growth inhibition of human A498 cells at 10 uM relative to control; assay type: functional
# ACHN = assay: Growth inhibition of human ACHN cells at 10 uM relative to control; assay type: functional
# CAKI-1 = assay: Growth inhibition of human CAKI-1 cells at 10 uM relative to control; assay type: functional
# RXF 393 = assay: Growth inhibition of human RXF 393 cells at 10 uM relative to control; assay type: functional
# SN12C = assay: Growth inhibition of human SN12C cells at 10 uM relative to control; assay type: functional; settings: read-out: GI
# TK-10 = assay: Growth inhibition of human TK-10 cells at 10 uM relative to control; assay type: functional; settings: read-out: GI
# UO-31 = assay: Growth inhibition of human UO-31 cells at 10 uM relative to control; assay type: functional; settings: read-out: GI
# PC-3 = assay: Growth inhibition of human PC-3 cells at 10 uM relative to control; assay type: functional; settings: read-out: GI
# DU-145 = assay: Growth inhibition of human DU-145 cells at 10 uM relative to control; assay type: functional; settings: read-out: GI
# MCF7 = assay: Growth inhibition of human MCF7 cells at 10 uM relative to control; assay type: functional; settings: read-out: GI
# MDA-MB-231 = assay: Growth inhibition of human MDA-MB-231 cells at 10 uM relative to control; assay type: functional; settings: read-out: GI
# Hs-578T = assay: Growth inhibition of human Hs-578T cells at 10 uM relative to control; assay type: functional
# BT-549 = assay: Growth inhibition of human BT-549 cells at 10 uM relative to control; assay type: functional
# DNA = assay: Displacement of methyl green from DNA (unknown origin) assessed as DNA intercalation after 24 hrs by colorimetric assay; assay type: nucleic-acid assay
# [1] = test system: Panel NCI-60 (60 carcinoma cell lines); assay: Growth inhibition of human NCI60 cells; assay type: functional
compound,measurement,setting,value
COc1cccc2c1C(=O)c1c(O)c3c(c(O)c1C2=O)C[C@@](O)(C(=O)CO)C[C@@H]3O[C@H]1C[C@H](N)[C@H](O)[C@H](C)O1 [DOXORUBICIN],inhibition of growth at 10 µM,LOX IMVI,94.3%
same,growth inhibition (GI),MDA-MB-468,Active
same,growth inhibition (GI),T47D,Active
same,growth inhibition (GI),CCRF-CEM,Active
same,growth inhibition (GI),HL-60(TB),Active
same,inhibition of growth at 10 µM,K562,97.9%
same,growth inhibition (GI),MOLT-4,Active
same,growth inhibition (GI),RPMI-8226,Active
same,growth inhibition (GI),SR,Active
same,growth inhibition (GI),A549,Active
same,inhibition of growth at 10 µM,HOP-62,93.1%
same,growth inhibition (GI),HOP-92,Active
same,growth inhibition (GI),NCI-H226,Active
same,inhibition of growth at 10 µM,NCI-H23,66.7%
same,inhibition of growth at 10 µM,NCI-H322M,86.1%
same,inhibition of growth at 10 µM,NCI-H460,99.4%
same,growth inhibition (GI),NCI-H522,Active
same,inhibition of growth at 10 µM,SW-620,98.1%
same,growth inhibition (GI),COLO 205,Active
same,growth inhibition (GI),HCC 2998,Active
same,inhibition of growth at 10 µM,HCT-116,97.2%
same,inhibition of growth at 10 µM,HCT-15,84.8%
same,inhibition of growth at 10 µM,HT-29,95.3%
same,inhibition of growth at 10 µM,KM12,95.8%
same,growth inhibition (GI),SF-268,Active
same,growth inhibition (GI),SF-295,Active
same,growth inhibition (GI),SF-539,Active
same,growth inhibition (GI),SNB-19,Active
same,growth inhibition (GI),SNB-75,Active
same,inhibition of growth at 10 µM,U-251,90.8%
same,growth inhibition (GI),Malme-3M,Active
same,growth inhibition (GI),M14,Active
same,growth inhibition (GI),MDA-MB-435,Active
same,growth inhibition (GI),SK-MEL-2,Active
same,growth inhibition (GI),SK-MEL-28,Active
same,growth inhibition (GI),SK-MEL-5,Active
same,inhibition of growth at 10 µM,UACC-257,96.5%
same,growth inhibition (GI),UACC-62,Active
same,growth inhibition (GI),IGROV-1,Active
same,inhibition of growth at 10 µM,OVCAR-4,85.9%
same,growth inhibition (GI),OVCAR-5,Active
same,growth inhibition (GI),OVCAR-8,Active
same,inhibition of growth at 10 µM,NCI/ADR-RES,95.1%
same,inhibition of growth at 10 µM,SK-OV-3,86.2%
same,inhibition of growth at 10 µM,786-0,95.5%
same,growth inhibition (GI),A498,Active
same,growth inhibition (GI),ACHN,Active
same,growth inhibition (GI),CAKI-1,Active
same,growth inhibition (GI),RXF 393,Active
same,inhibition of growth at 10 µM,SN12C,88%
same,inhibition of growth at 10 µM,TK-10,74.6%
same,inhibition of growth at 10 µM,UO-31,96%
same,inhibition of growth at 10 µM,PC-3,98.7%
same,inhibition of growth at 10 µM,DU-145,86.8%
same,inhibition of growth at 10 µM,MCF7,96.6%
same,inhibition of growth at 10 µM,MDA-MB-231,96.2%
same,growth inhibition (GI),Hs-578T,Active
same,growth inhibition (GI),BT-549,Active
same,IC50,DNA,31.27 µg/mL
same,GI50,[1],0.15 µM
same,TGI,[1],2.48 µM
